Measured values: PubChem BioAssay AID1645865 (Buhrlage Lab, Dana-Farber Cancer Institute and Novartis …, 2021)
The source made the active and inactive calls.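 How the source made its calls: active means maximal inhibition of the USP30 enzyme reaching 30% or more across the dose series; inactive means the rest.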

Target: Ubiquitin carboxyl-terminal hydrolase 30 (Homo sapiens) (UniProt Q70CQ3)
Assay: inhibitors of ubiquitin-specific protease 30 deubiquitylating enzyme, concentration dependence, in vitro biochemical, validation of primary hits (AID 1645865)
Conditions: purified USP30, Ub-rhodamine cleavage, fluorescence, 2 h

Chain of Ubiquitin carboxyl-terminal hydrolase 30 (Homo sapiens) (Q70CQ3 whole entry, looked up): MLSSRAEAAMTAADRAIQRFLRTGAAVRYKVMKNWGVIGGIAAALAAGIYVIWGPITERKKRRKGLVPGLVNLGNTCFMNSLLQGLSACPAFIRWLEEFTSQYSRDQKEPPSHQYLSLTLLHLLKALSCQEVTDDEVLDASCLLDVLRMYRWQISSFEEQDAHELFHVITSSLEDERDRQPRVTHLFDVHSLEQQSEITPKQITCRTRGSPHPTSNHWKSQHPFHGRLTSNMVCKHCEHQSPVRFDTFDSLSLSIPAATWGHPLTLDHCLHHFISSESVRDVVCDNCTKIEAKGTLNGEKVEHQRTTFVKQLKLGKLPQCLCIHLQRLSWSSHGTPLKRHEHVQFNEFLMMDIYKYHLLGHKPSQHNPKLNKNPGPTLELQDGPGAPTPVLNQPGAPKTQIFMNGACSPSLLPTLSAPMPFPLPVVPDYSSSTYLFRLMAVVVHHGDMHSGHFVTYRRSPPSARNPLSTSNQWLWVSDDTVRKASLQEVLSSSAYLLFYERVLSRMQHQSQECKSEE

| IC50 | SMILES |
| --- | --- |
| > 50 µM (inactive) | O=c1[nH]c2ccccc2cc1CN(Cc1ccco1)S(=O)(=O)c1ccc(F)cc1 |
| 4.67 µM | CCc1ccc(NC(=O)CN=C2NS(=O)(=O)C(c3ccc(CC)cc3)=C2C)cc1 |
| 1.59 µM | COc1ccc(-c2cc(-c3ccccc3)nc(SCC(N)=O)c2C#N)cc1OC |
| > 50 µM (inactive) | CCN(Cc1ccccc1)S(=O)(=O)c1ccc(C(=O)Nc2ccc3c(c2)OCCO3)cc1 |
| > 50 µM (inactive) | O=[N+]([O-])c1ccc(NCC2COc3ccccc3O2)c(Cl)c1 (stereo not given) |
| > 50 µM (inactive) | CCN(CC)c1cc(C)c2cc(NC(=O)c3ccncc3)ccc2n1 |
| 10.3 µM | Cc1cc(N2CCOCC2)nc2ccc(NC(=O)CCC(=O)Nc3ccc(F)cc3)cc12 |
| > 50 µM (inactive) | CCOc1ccc(CCNC(=O)CCC(=O)Nc2ccc3nc(N4CCN(C)CC4)cc(C)c3c2)cc1OCC |
| 3.78 µM | NC(=O)c1nc(-c2cccc(F)c2)nc2c1[nH]c(=O)n2C1CCCCC1 |
| 27.9 µM | COc1ccc(C2C(C(=O)Nc3ccccc3OC)=C(C)Nc3nnnn32)cc1Br (stereo not given) |
| 2.13 µM | Cc1ccc(CNC(=O)CCCn2c(=O)c3sccc3n(CC(=O)Nc3cc(Cl)ccc3C)c2=O)cc1 |
| > 50 µM (inactive) | O=c1[nH]c(-c2ccccn2)nc2c1CCN(Cc1cnn(-c3ccccc3)c1)C2 |
| 5.93 µM | Cc1ccc(O)c(-c2cc(C(=O)Nc3ccccc3Cl)[nH]n2)c1 |
| > 50 µM (inactive) | COc1ccc(CCC(=O)Nc2ccc3c(c2)Sc2ncccc2C(=O)N3C)cc1 |
| > 50 µM (inactive) | C/C1=C\CCC(C)C(O)CC(O)C(C)C(O)CCC(C)C(O)CC2(O)OC(CC(OC(=O)CC(=O)O)CC(O)CC(O)CC(O)C(C)C(O)/C=C/C(C)C(C(C)CCCCCCCCN=C(N)N)OC1=O)CC(O)C2O (stereo not given) |
| 24.6 µM | COc1cccc(C(=O)Nc2ccc(-n3cnnn3)cc2)c1 |
| > 50 µM (inactive) | O=C(NC1CCN(c2nc(-c3cccnc3)nc3ccccc23)CC1)c1cccnc1 |
| 47.7 µM | Cc1nc(-c2ccc(-n3cc(C(=O)Nc4cccc(F)c4)c(C)n3)cc2)no1 |
| 14.1 µM | CN1C(=O)COc2ccc(NC(=O)c3cc(-c4ccccc4)on3)cc21 |
| 40.9 µM | O=C(NCCn1ccc2ccccc21)c1cc2ccccc2oc1=O |
| 16.3 µM | O=C(COC(=O)c1cc(Cl)ccc1O)Nc1ccc2c(c1)OCCO2 |
| > 50 µM (inactive) | COc1cc(C(=O)Nc2ccc(-c3csc(C)n3)cc2)cc(OC)c1OC |
| > 50 µM (inactive) | Fc1ccc(Cc2nc(-c3ccc4nncn4c3)no2)cc1 |

| IC50 | SMILES |
| --- | --- |
| 14.9 µM | FC(F)(F)c1cccc(CSc2ccc3nnc(-c4ccccn4)n3n2)c1 |
| 22.8 µM | Cc1ccnc(NC(=O)c2ccn(COc3ccc(Cl)cc3)n2)c1 |
| 25.4 µM | CC(C(=O)NCCc1ccccc1)n1nc(-c2ccccc2)c2cc(Cl)ccc21 (stereo not given) |
| 0.975 µM | CCOc1ccc(NC(=O)Cn2cc(C(=O)c3ccc(Cl)cc3)c(=O)c3cc(OC)ccc32)cc1 |
| 37.4 µM | Cc1cc(C)n(-c2ccc(C(=O)NCc3ccc(F)cc3)cn2)n1 |
| > 50 µM (inactive) | CC1CCc2c(sc3nc(CC#N)[nH]c(=O)c23)C1 (stereo not given) |
| 41.8 µM | Cc1cccc(C(=O)NCc2nc3ccccc3n2Cc2ccccc2C)c1 |
| > 50 µM (inactive) | O=S(=O)(c1ccccc1Cl)N1CCN(c2ccc3nnc(-c4ccco4)n3n2)CC1 |
| > 50 µM (inactive) | CC(=O)N1CCOc2cc(S(=O)(=O)N3CCCC3c3cc(C)no3)ccc21 (stereo not given) |
| > 50 µM (inactive) | Cc1ccc2c(c1C)NC(=O)[C@]21[C@@H]2C(=O)N(c3cc(Cl)ccc3Cl)C(=O)[C@@H]2[C@@H]2CCCN21 |
| > 50 µM (inactive) | O=C(O)Cc1ccc(Nc2nc3ccccc3n3nnnc23)cc1 |
| > 50 µM (inactive) | CCOC(=O)c1cc2c(ccn2C)n1CC(=O)N1CCc2ccccc2C1 |
| > 50 µM (inactive) | COc1ccc(C2CC(c3ccc(C)cc3)N(C(=O)C3CC3)c3ncnn32)cc1 (stereo not given) |
| 40.3 µM | CCCCCCCc1cc(O)cc(OC(=O)c2c(CCCCCCC)cc(O)cc2O[C@H]2O[C@H](C(O)CO)[C@@H](O)[C@@H]2O)c1 (stereo not given in full) |
| 23.1 µM | CCn1cc(-c2nc(-c3ccccn3)no2)c(=O)c2cc(F)ccc21 |
| 2.47 µM | COc1ccc(CCn2cnc3c([nH]c4ccccc43)c2=O)cc1 |
| > 50 µM (inactive) | CCc1nc2cc(NC(=O)c3cccc(N4CCCC4=O)c3)ccc2n1C |
| > 50 µM (inactive) | O=C1/C(=C/c2cn(-c3ccccc3)nc2-c2ccc3c(c2)OCCO3)Cc2ccccc21 |
| 2.36 µM | COc1ccc(S(=O)(=O)N2CCc3ccccc32)cc1C(=O)Nc1ccc2[nH]c(=O)[nH]c2c1 |
| > 50 µM (inactive) | O=c1c(OC2O[C@H](CO)[C@H](O)[C@H](O)[C@H]2O)c(-c2ccc(O)cc2)oc2cc(O)cc(O)c12 (stereo not given in full) |
| > 50 µM (inactive) | Cn1cccc1C(=O)N1CCCC2(C1)Nc1cccnc1NC2=NC1CCCC1 (stereo not given) |
| > 5 µM (inactive) | COCCn1c(=S)[nH]c2cc(C(=O)NCCSCc3ccccc3)ccc2c1=O |
| > 50 µM (inactive) | COc1ccc(C)cc1NC(=O)C(NS(=O)(=O)c1ccc2c(c1)CCN2C(C)=O)C(C)C (stereo not given) |

| IC50 | SMILES |
| --- | --- |
| 2.1 µM | Cc1ccc2[nH]c(=O)c(-c3nc4ccc(C)cn4c3NCc3ccc(F)cc3)cc2c1 |
| > 5 µM (inactive) | Cc1nn(CC(=O)Nc2ccc(Br)c3cccnc23)c(=O)c2ccccc12 |
| 1.86 µM | COc1ccc(NC(=O)CNC(=O)c2ccc3nc(-n4cccc4)sc3c2)cc1 |
| > 50 µM (inactive) | CN(C)C1CCN(C(=O)c2cc(-c3ccn(-c4ccccc4)n3)n3ccccc23)CC1 |
| 39.3 µM | COc1ccc(-c2cc(-c3nnc4n3CCCCC4)n(-c3ccccc3)n2)cc1 |
| 3.86 µM | COc1ccccc1NC(=O)Cn1cc(C(=O)c2ccc(C)cc2)c(=O)c2cc(Cl)ccc21 |
| > 50 µM (inactive) | CC1CCN(C(=O)c2cn(-c3cc(N4CCC(C)CC4)ncn3)cn2)CC1 |
| > 50 µM (inactive) | O=C(CSc1nncc2ccccc12)Nc1ccc2c(c1)OCO2 |
| > 50 µM (inactive) | O=C(Cn1ccc2ccc(N3CCOCC3)nc21)NCc1ccccc1F |
| 16 µM | O=C(Nc1cc(Cl)cc(Cl)c1)c1csnn1 |
| 19.3 µM | O=C(Cn1cncc(C(=O)NC2CCCC2)c1=O)Nc1cccc(F)c1 |
| 21 µM | CCc1ccc(-n2nc(C)c3c2NC(=O)CC3C(=O)c2ccc3c(c2)OCCO3)cc1 (stereo not given) |
| > 50 µM (inactive) | CC(=O)Nc1ccc(Cc2nc(-c3ccc4c(c3)nc(C)c(=O)n4C3CCCC3)no2)cc1 |
| > 50 µM (inactive) | O=C(OCc1cccc(Cl)c1)c1ccc2ccccc2n1 |
| > 50 µM (inactive) | Cc1cc(SCc2ncon2)c(C)cc1Cl |
| > 50 µM (inactive) | COc1cccc(-n2cnc3cc(C(=O)NC4CC4)ccc3c2=O)c1 |
| > 50 µM (inactive) | N#Cc1ccccc1OCc1csc(-c2ccccc2)n1 |
| > 50 µM (inactive) | O=[N+]([O-])c1ccccc1C(c1c[nH]c2ccccc12)c1c[nH]c2ccccc12 |
| 3.92 µM | COc1ccc(-c2cc3nc([C@H](C)NC(=O)Cc4cccc(F)c4)nn3cn2)cc1 |
| 46.9 µM | Cc1cc(C)nc(SCCn2c(N3CCC(Cc4ccccc4)CC3)nc3c2c(=O)n(C)c(=O)n3C)n1 |
| 0.0981 µM | Cc1nc(C(=O)Nc2cccc(Cl)c2Cl)nn1-c1cc(Cl)cc(Cl)c1 |
| 1.5 µM | COc1ccc(CNc2nn3c(-c4cncc(OC)c4)cnc3s2)cc1 |
| 2.22 µM | Cc1ccc(-c2noc(-c3nnc(SCC(=O)NC4CCCC4)n3C)n2)cc1 |

| SMILES | IC50 |
| --- | --- |
| Cc1cc(C)nc(-n2nc(C)c3c2NC(=O)CSC3c2ccccc2F)n1 (stereo not given) | 29.5 µM |
